Measured values as given in patent EP2064211B1, “IMIDAZO[1,2-A]PYRIDINE HYDROXYMATE COMPOUNDS THAT ARE INHIBITORS OF HISTONE DEACETYLASE” (MEI Pharma, Inc., priority 2006, dated 2008).

Key:
[1] = biological target: T1, HDAC1 enzyme (Homo sapiens, UniProt Q13547); assay: In vitro HDAC assay for determination of IC50 values (BIOMOL fluorescent-based HDAC activity assay); assay type: biochemical; conditions: recombinant GST-HDAC1, 500 uM Flur de lys substrate, room temperature 2 h; read-out: IC50 (HDAC 1)
T1 construct: Amplification of human HDAC1 coding region from this cDNA library was cloned separately into the baculovirus expression pDEST20 vector; made in house; host or cells: SF9 insect cells (baculovirus, pDEST20 vector)
T1 sequence (Q13547 whole entry): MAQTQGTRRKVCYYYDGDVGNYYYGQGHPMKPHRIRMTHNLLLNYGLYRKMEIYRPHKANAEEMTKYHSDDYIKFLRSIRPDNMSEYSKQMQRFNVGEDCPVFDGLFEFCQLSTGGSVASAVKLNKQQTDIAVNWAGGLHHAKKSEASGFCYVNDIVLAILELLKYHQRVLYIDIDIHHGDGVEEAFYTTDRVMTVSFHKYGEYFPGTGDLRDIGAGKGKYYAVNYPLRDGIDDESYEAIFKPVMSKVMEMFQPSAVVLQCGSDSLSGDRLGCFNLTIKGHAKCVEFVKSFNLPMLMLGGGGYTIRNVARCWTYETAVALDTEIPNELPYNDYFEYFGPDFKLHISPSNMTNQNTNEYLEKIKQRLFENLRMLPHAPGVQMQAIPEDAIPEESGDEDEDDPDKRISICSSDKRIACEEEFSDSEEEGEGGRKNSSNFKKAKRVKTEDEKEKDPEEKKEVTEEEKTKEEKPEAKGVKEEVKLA
Procedure: Human cDNA library was prepared using cultured SW620 cells. Amplification of human HDAC1 coding region from this cDNA library was cloned separately into the baculovirus expression pDEST20 vector (GATEWAY Cloning Technology, Invitrogen Pte Ltd). The pDEST20-HDAC1 construct was confirmed by DNA sequencing. Recombinant baculovirus was prepared using the Bac-To-Bac method following the manufacturer's instruction (Invitrogen Pte Ltd).
Expression of GST-HDAC1 was done by infecting SF9 cells (Invitrogen Pte Ltd) with pDEST20-HDAC1 baculovirus at MOI=1 for 48 h. Soluble cell lysate was incubated with pre-equilibrated Glutathione Sepharose 4B beads (Amersham) at 4°C for 2 h. The beads were washed with PBS buffer for 3 times. The GST-HDAC1 protein was eluted by elution buffer containing 50 mM Tris, pH8.0, 150mM NaCl, 1% Triton X-100 and 10mM or 20mM reduced Glutathione. The purified GST-HDAC1 protein was dialyzed with HDAC storage buffer containing 10mM Tris, pH7.5, 100mM NaCl and 3mM MgCl2. 20% Glycerol was added to purified GST-HDAC1 protein before storage at -80°C.
The assay has been carried out in 96 well format and the BIOMOL fluorescent-based HDAC activity assay has been applied. The reaction composed of assay buffer, containing 25 mM Tris pH 7.5, 137 mM NaCl, 2.7 mM KCl, 1 mM MgCl2, 1 mg/ml BSA, tested compounds, an appropriate concentration of HDAC1 enzyme, 500 uM Flur de lys generic substrate for HDAC1 enzyme and subsequently was incubated at room temperature for 2 h. Flur de lys Developer was added and the reaction was incubated for 10 min. Briefly, deacetylation of the substrate sensitizes it to the developer, which then generates a fluorophore. The fluorophore is excited with 360 nm light and the emitted light (460 nm) is detected on a fluorometric plate reader (Tecan Ultra Microplate detection system, Tecan Group Ltd.).
The analytical software, Prism 4.0 (GraphPad Software Inc) has been used to generate IC50 from a series of data. IC50 is defined as the concentration of compound required for 50% inhibition of HDAC enzyme activity.

[2] = tested on: Colo205 cells; assay: Cell-based proliferation assay for determination of GI50 values (CyQUANT); set-up: species or system Human; conditions: Homo sapiens, COLO 205, compound treatment 96 h, concentration for 50% inhibition of cell growth, read-out: Gl50 (Colo205)
Procedure: Human cancer cell lines (e.g. Colo205) were obtained from ATCC. Colo205 cells were cultivated in RPMI 1640 containing 2 mM L-Glutamine, 5% FBS, 1.0 mM Na Pyruvate. Colo205 cells were seeded in 96-wells plate at 5000 cells per well. The plates were incubated at 37°C, 5% CO2, for 24 h. Cells were treated with compounds at various concentrations for 96 h. Cell growth was then monitored using CyQUANT® cell proliferation assay (Invitrogen Pte Ltd). Dose response curves were plotted to determine Gl50 values for the compounds using XL-fit (ID Business Solution, Emeryville, CA). Gl50 is defined as the concentration of compound required for 50% inhibition of cell growth.

IC50 [1] [µM] | IC50 [2] [µM] | SMILES
0.06 | 0.68 | CCCCN(CC)Cc1c(C(C)(C)C)nc2cc(C=CC(=O)NO)ccn12 [Compound 16, 3-{2-tert-Butyl-3-[(butyl-ethyl-amino)-methyl]-imidazo[1,2-a]pyridin-7-yl}-N-hydroxy-acrylamide]
0.13 | 0.74 | CC(C)(C)NCc1c(C(C)(C)C)nc2cc(C=CC(=O)NO)ccn12 [Compound 3, 3-[2-tert-Butyl-3-(tert-butylamino-methyl)-imidazo[1,2-a]pyridin-7-yl]-N-hydroxy-acrylamide]
0.04 | 0.13 | CCN(CCC(C)(C)C)Cc1c(CCC(C)C)nc2cc(C=CC(=O)NO)ccn12 [Compound 68, 3-[3-{[(3,3-Dimethyl-butyl)-ethyl-amino]-methyl}-2-(3-methyl-butyl)-imidazo[1,2-a]pyridin-7-yl]-N-hydroxy-acrylamide]
0.02 | 0.07 | CCCc1nc2cc(C=CC(=O)NO)ccn2c1CN(CC)CCC(C)(C)C [Compound 52, 3-(3-{[(3,3-Dimethyl-butyl)-ethyl-amino]-methyl}-2-propyl-imidazo[1,2-a]pyridin-7-yl)-N-hydroxy-acrylamide]
0.05 | 0.21 | CC(C)Cc1nc2cc(C=CC(=O)NO)ccn2c1CNC(C)(C)C [Compound 58, 3-[3-(tert-Butylamino-methyl)-2-isobutyl-imidazo[1,2-a]pyridin-7-yl]-N-hydroxy-acrylamide]
0.19 | 1.5 | CC(C)(C)CNCc1c(C(C)(C)C)nc2cc(C=CC(=O)NO)ccn12 [Compound 1, 3-{2-tert-Butyl-3-[(2,2-dimethyl-propylamino)-methyl]-imidazo[1,2-a]pyridin-7-yl}-N-hydroxy-acrylamide]
0.08 | 0.49 | CCCCc1nc2cc(C=CC(=O)NO)ccn2c1CN(CC)CC(C)CCC (stereo not shown) [Compound 44, 3-(2-Butyl-3-{[ethyl-(2-methyl-pentyl)-amino]-methyl}-imidazo[1,2-a]pyridin-7-yl)-N-hydroxy-acrylamide]
0.27 | 1.8 | CCCN(CC)Cc1c(C(C)(C)C)nc2cc(C=CC(=O)NO)ccn12 [Compound 13, 3-{2-tert-Butyl-3-[(ethyl-propyl-amino)-methyl]-imidazo[1,2-a]pyridin-7-yl}-N-hydroxy-acrylamide]
0.04 | 0.16 | CCCCN(CC)Cc1c(CCC)nc2cc(C=CC(=O)NO)ccn12 [Compound 57, 3-{3-[(Butyl-ethyl-amino)-methyl]-2-propyl-imidazo[1,2-a]pyridin-7-yl}-N-hydroxy-acrylamide]
0.03 | 0.17 | CCN(CCC(C)(C)C)Cc1c(CC(C)C)nc2cc(/C=C/C(=O)NO)ccn12 [Compound 61]
0.2 | 0.53 | CCCCc1nc2cc(C=CC(=O)NO)ccn2c1CN(CC)CCC(C)CC(C)(C)C (stereo not shown) [Compound 47, 3-(2-Butyl-3-{[ethyl-(3,5,5-trimethyl-hexyl)-amino]-methyl}-imidazo[1,2-a]pyridin-7-yl)-N-hydroxy-acrylamide]
0.19 | 1.1 | CCN(Cc1c(C(C)(C)C)nc2cc(C=CC(=O)NO)ccn12)CC1CCCCC1 [Compound 28, 3-{2-tert-Butyl-3-[(cyclohexylmethyl-ethyl-amino)-methyl]-imidazo[1,2-a]pyridin-7-yl}-N-hydroxy-acrylamide]
0.24 | 2 | CCCCCCN(CC)Cc1c(C(C)(C)C)nc2cc(C=CC(=O)NO)ccn12 [Compound 21, 3-{2-tert-Butyl-3-[(ethyl-hexyl-amino)-methyl]-imidazo[1,2-a]pyridin-7-yl}-N-hydroxy-acrylamide]
0.13 | 0.75 | CCCCCN(CC)Cc1c(C(C)(C)C)nc2cc(C=CC(=O)NO)ccn12 [Compound 18, 3-{2-tert-Butyl-3-[(ethyl-pentyl-amino)-methyl]-imidazo[1,2-a]pyridin-7-yl}-N-hydroxy-acrylamide]
0.03 | 0.14 | CCCCc1nc2cc(C=CC(=O)NO)ccn2c1CN(CC)CCC(C)(C)C [Compound 45, 3-(2-Butyl-3-{[(3,3-dimethyl-butyl)-ethyl-amino]-methyl)-imidazo[1,2-a]pyridin-7-yl)-N-hydroxy-acrylamide]
0.02 | 0.07 | CCCCCc1nc2cc(C=CC(=O)NO)ccn2c1CNC(C)(C)C [Compound 53, 3-[3-(tert-Butylamino-methyl)-2-pentyl-imidazo[1,2-a]pyridin-7-yl]-N-hydroxy-acrylamide]
1.2 | 4.4 | CCN(CC)Cc1c(C(C)(C)C)nc2cc(C=CC(=O)NO)ccn12 [Compound 11, 3-(2-tert-Butyl-3-diethylaminomethyl-imidazo[1,2-a]pyridin-7-yl)-N-hydroxy-acrylamide]
0.03 | 0.08 | CCCc1nc2cc(C=CC(=O)NO)ccn2c1CN(CC)CCC(C)C [Compound 51, 3-(3-{[Ethyl-(3-methyl-butyl)-amino]-methyl}-2-propyl-imidazo[1,2-a]pyridin-7-yl)-N-hydroxy-acrylamide]
0.09 | 0.58 | CCCCc1nc2cc(C=CC(=O)NO)ccn2c1CN(CCC)CCCC [Compound 10, 3-{2-Butyl-3-[(butyl-propyl-amino)-methyl]-imidazo[1,2-a]pyridin-7-yl}-N-hydroxy-acrylamide]
0.03 | 0.14 | CCCCCc1nc2cc(C=CC(=O)NO)ccn2c1CN(CC)CCC(C)C [Compound 55, 3-(3-{(Ethyl-(3-methyl-butyl)-amino]-methyl}-2-pentyl-imidazo[1,2-a]pyridin-7-yl)-N-hydroxy-acrylamide]
0.01 | 0.05 | CCC(CC)CN(CC)Cc1c(C)nc2cc(C=CC(=O)NO)ccn12 [Compound 31, 3-(3-{[Ethyl-(2-ethyl-butyl)-amino]-methyl}-2-methyl-imidazo[1,2-a]pyridin-7-yl)-N-hydroxy-acrylamide]
0.54 | 2.7 | CCCCCCCN(CC)Cc1c(C(C)(C)C)nc2cc(/C=C/C(=O)NO)ccn12 [Compound 25]
0.05 | 0.6 | CCN(Cc1c(C)nc2cc(C=CC(=O)NO)ccn12)CC(C)(C)C [Compound 39, 3-(3-{[(2,2-Dimethyl-propyl)-ethyl-amino]-methyl}-2-methyl-imidazo[1,2-a]pyridin-7-yl)-N-hydroxy-acrylamide]
0.35 | 0.9 | CC(C)CCN(C)Cc1c(C(C)(C)C)nc2cc(C=CC(=O)NO)ccn12 [Compound 36, 3-(2-tert-Butyl-3-{[methyl-(3-methyl-butyl)-amino]-methyl}-imidazo[1,2-a]pyridin-7-yl)-N-hydroxy-acrylamide]
0.41 | 2.3 | CCC(CC)CN(C)Cc1c(C(C)(C)C)nc2cc(C=CC(=O)NO)ccn12 [Compound 35, 3-(2-tert-Butyl-3-{[(2-ethyl-butyl)-methyl-amino]-methyl}-imidazo[1,2-a]pyridin-7-yl)-N-hydroxy-acrylamide]
0.04 | 0.23 | CCCCc1nc2cc(C=CC(=O)NO)ccn2c1CN(C)C [Compound 14, 3-(2-Butyl-3-dimethylaminomethyl-imidazo[1,2-a]pyridin-7-yl)-N-hydroxy-acrylamide]
